Our source for the Emax values is patent US20260256751A1, “COMBINATION OF BETA-2-ADRENERGIC RECEPTOR AGONISTS AND GLP-1 RECEPTOR AGONISTS FOR USE IN TREATING HYPERGLYCAEMIA” (ATROGI AB, priority 2023, published 2026).

For experiment [1], the system named is differentiated L6-myotubes. Briefly: Glucose uptake screen (Biological example 1 of WO 2019/053427). Format: cell-based. To be noted: compound at 10 μM, activity relative to isoproterenol at 10 μM, read-out: Biological example 1 of WO 2019/053427 (GU). Here is the method:
(§1) Compounds described in publications referenced and incorporated herein were screened in accordance with the procedures outlined in Biological example 1 and Biological example 2 of WO 2019/053427.
L6-myoblasts were grown in Dulbecco's Modified Eagle's Medium (DMEM) containing 1 g/L glucose supplemented with 10% fetal bovine serum (FBS), 2 mM L-glutamine, 50 U/mL penicillin, […] streptomycin and 10 mM HEPES. Cells were plated at 1x 10^5 cells per mL in 24-well plates. After reaching 90% confluence the cells were grown in medium containing 2% FBS for 7 days where upon cells differentiated into myotubes. The differentiated L6-myotubes were serum-starved overnight in medium containing 0.5% fatty-acid free BSA and stimulated with Compound A at a final concentration of 1×10^−5 M in the presence of the selective β2-adrenergic receptor antagonist ICI-118551. After 1 h 40 min the cells were washed with warm, glucose free medium twice and another portion of agonist was added to the glucose free medium. After another 20 min of incubation the cells were exposed to 50 nM ^3H-2-deoxyglucose for 10 min before washed in ice cold glucose free medium three times and lysed in 400 µl/well 0.2 M NaOH for 1 h at 60° C. The cell lysate was mixed with 4 ml scintillation buffer (Emulsifier Safe, Perkin Elmer) and the radioactivity was detected in a P-counter (Tri-Carb 4810TR, Perkin Elmer).

Experiment [2] relates to differentiated L6-myotubes. Briefly: cAMP production relative to isoprenaline (Biological example 2 of WO 2019/053427). Format: cell-based. The conditions noted are these: 0.25 h, compound at 10 μM, activity relative to isoproterenol at 10 μM.
Source text: For example, the level of cAMP production induced by a given compound can be determined by reference to the amount induced by a defined concentration of that compound relative to that induced by the same concentration of a reference compound, such as isoprenaline, using techniques known to those skilled in the art (e.g. following the protocol as described in the biological examples provided in WO 2019/053427, i.e. in cells, such as differentiated L6-myotubes, having been stimulated with isoprenaline or the compound with a final concentration of 1×10^−5 M, for 15 min in stimulation buffer, such as HBSS supplemented with 1% BSA, 5 mM HEPES and 1 mM IBMX, at pH 7.4).
as §1

Take `C[C@H]1CC[C@@H]([C@H](O)c2ccccc2)N1` (racemic) [Compound 38, Racemic mixture of (R)-[(2S,5S)-5-methyl-2-pyrrolidinyl]phenylmeth-anol and (S)-[(2R,5R)-5-methyl-2-pyrrolidinyl]phenylmeth-anol]: the Emax at 10 µM in experiment [1] was 25 to 50%; in experiment [2], under 25%.

With `C[C@H]1CC[C@@H]([C@@H](O)c2ccccc2)N1` (racemic) [Compound 39, Racemic mixture of (R)-[(2R,5R)-5-methyl-2-pyrrolidinyl]phenylmeth-anol and (S)-[(2S,5S)-5-methyl-2-pyrrolidinyl]phenylmeth-anol], the Emax at 10 µM in experiment [1] is 50 to 75%; in experiment [2], under 25%.

For `C[C@H]1CC[C@@H]([C@H](O)c2cccc(O)c2)N1` (racemic) [Compound 40, Racemic mixture of m-{(R)-[(2S,5S)-5-methyl-2-pyrrolidinyl]hydroxymeth-yl}phenol and m-{(S)-[(2R,5R)-5-methyl-2-pyrrolidinyl]hydroxymeth-yl}phenol], the Emax at 10 µM in experiment [1] was 50 to 75%; in experiment [2], under 25%.

Take `C[C@H]1CC[C@@H]([C@@H](O)c2cccc(O)c2)N1` (racemic) [Compound 41, Racemic mixture of m-{(R)-[(2R,5R)-5-methyl-2-pyrrolidinyl]hydroxymeth-yl}phenol and m-{(S)-[(2S,5S)-5-methyl-2-pyrrolidinyl]hydroxymeth-yl}phenol]: the Emax at 10 µM in experiment [1] was over 75%; in experiment [2] it was under 25%.

In the case of `CCCCNCC(O)c1ccc(O)cc1` (centres unmarked) [Compound 1, 2-(butylamino)-1-(p-hydroxyphenyl)-1-ethanol], the values for the Emax at 10 µM in experiment [1] and in experiment [2] were over 75% and under 25%, respectively.

For `CCCCNCC(O)c1cccc(Cl)c1` (centres unmarked) [Compound 2, 2-(butylamino)-1-(m-chlorophenyl)-1-ethanol], the Emax at 10 µM in experiment [1] was 25 to 50%; in experiment [2] it was under 25%.

For the compound `Oc1ccc(C(O)CNCC2CC2)cc1` (centres unmarked) [Compound 3, p-{2-[(cyclopropylmethyl)ami-no]-1-hydroxyethyl}phenol], the Emax at 10 µM is 50 to 75% in experiment [1] and under 25% in experiment [2].

As for `CC(C)(C)NCC(O)c1ccc(O)cc1` (centres unmarked) [Compound 4, 2-(tert-butylamino)-1-(p-hydroxyphenyl)-1-ethanol], the Emax at 10 µM in experiment [1] is over 75%; in experiment [2], 25 to 50%.

Turning to `CCC(C)NCC(O)c1ccc(O)cc1` (centres unmarked) [Compound 5, 2-(sec-butylamino)-1-(p-hydroxyphenyl)-1-ethanol], the Emax at 10 µM in experiment [1] is 50 to 75%; in experiment [2], under 25%.

Regarding `Oc1ccc(C(O)CNCC2CCCCC2)cc1` (centres unmarked) [Compound 6, 2-[(cyclohexylmethyl)ami-no]-1-(p-hydroxyphenyl)-1-ethanol], the figures for the Emax at 10 µM in experiment [1] and in experiment [2] were over 75% and under 25%, respectively.

Take `OC(CNCC1CCCCC1)c1ccccc1` (centres unmarked) [Compound 7, 2-[(cyclohexylmethyl)ami-no]-1-phenyl-1-ethanol]: the Emax at 10 µM in experiment [1] was 25 to 50%; in experiment [2] it was under 25%.

In the case of `CCCC(C)NCC(O)c1ccc(O)cc1` (centres unmarked) [Compound 8, 1-(p-hydroxyphenyl)-2-(1-methylbutylamino)-1-ethanol], the Emax at 10 µM in experiment [1] lay within 50 to 75%; in experiment [2], 25 to 50%.

As for `CCCCNC[C@H](O)c1ccc(O)cc1` [Compound 9, (R)-2-(butylamino)-1-(p-hydroxyphenyl)-1-ethanol], the Emax at 10 µM is over 75% in experiment [1] and under 25% in experiment [2].

For the compound `Oc1ccc(C(O)CNC2CCCC2)cc1` (centres unmarked) [Compound 10, p-[2-(cyclopentylamino)-1-hydroxyethyl]phenol], the figures for the Emax at 10 µM in experiment [1] and in experiment [2] were 50 to 75% and under 25%, respectively.

As to `Oc1ccc(C(O)CNC23CC4CC(CC(C4)C2)C3)cc1` (centres unmarked) [Compound 11, p-[2-(1-adamantanylamino)-1-hydroxyethyl]phenol], the Emax at 10 µM in experiment [1] was 25 to 50%; in experiment [2] it was under 25%.

Turning to `CCCCNC(C)C(O)c1ccc(O)cc1` (centres unmarked) [Compound 12, 2-(butylamino)-1-(p-hydroxyphenyl)-1-propanol], the Emax at 10 µM in experiment [1] is 50 to 75%; in experiment [2], under 25%.

On to `CCCC(C)NC(C)C(O)c1ccc(O)cc1` (centres unmarked) [Compound 13, 1-(p-hydroxyphenyl)-2-(1-methylbutylamino)-1-propanol], for which the figures for the Emax at 10 µM in experiment [1] and in experiment [2] were 50 to 75% and under 25%, respectively.

Take `CCCC(C)NCC(O)c1cccc(O)c1` (centres unmarked) [Compound 14, 1-(m-hydroxyphenyl)-2-(1-methylbutylamino)-1-ethanol]: the Emax at 10 µM in experiment [1] is over 75%; in experiment [2], under 25%.

`CCCCNCC(O)c1cccc(O)c1` (centres unmarked) [Compound 15, 2-(butylamino)-1-(m-hydroxyphenyl)-1-ethanol]: the Emax at 10 µM in experiment [1] is 50 to 75%; in experiment [2], under 25%.

Regarding `Oc1ccc(C(O)CNCCC2CCCCC2)cc1` (centres unmarked) [Compound 16, 2-(2-cyclohexylethylamino)-1-(p-hydroxyphenyl)-1-ethanol], the Emax at 10 µM was 25 to 50% in experiment [1] and under 25% in experiment [2].

With `CCCCCCNCC(O)c1ccc(O)cc1` (centres unmarked) [Compound 17, 2-(hexylamino)-1-(p-hydroxyphenyl)-1-ethanol], the values for the Emax at 10 µM in experiment [1] and in experiment [2] were 25 to 50% and under 25%, respectively.

`CCCCCCCCNCC(O)c1ccc(O)cc1` (centres unmarked) [Compound 18, 1-(p-hydroxyphenyl)-2-(octylamino)-1-ethanol]: the Emax at 10 µM in experiment [1] was 25 to 50%; in experiment [2], under 25%.

As to `CCCC(C)NCC(O)c1ccc(O)c(Cl)c1` (centres unmarked) [Compound 19, 1-(3-chloro-4-hydroxyphenyl)-2-(1-methylbutylamino)-1-ethanol], the Emax at 10 µM in experiment [1] was 25 to 50%; in experiment [2] it was under 25%.

In the case of `CCCCNCC(O)c1ccc(O)c(Cl)c1` (centres unmarked) [Compound 20, 2-(butylamino)-1-(3-chloro-4-hydroxyphenyl)-1-ethanol], the results for the Emax at 10 µM in experiment [1] and in experiment [2] were 25 to 50% and under 25%, respectively.

`Oc1ccc(C(O)CNCCCC2CCCCC2)cc1` (centres unmarked) [Compound 21, 2-(3-cyclohexylpropylamino)-1-(p-hydroxyphenyl)-1-ethanol]: the Emax at 10 µM in experiment [1] was over 75%; in experiment [2] it was under 25%.

For the compound `CCCC(C)NCC(O)c1cc(Cl)c(N)c(Cl)c1` (centres unmarked) [Compound 22, 1-(4-amino-3,5-dichlorophenyl)-2-(1-methylbutylamino)-1-ethanol], the Emax at 10 µM is over 75% in experiment [1] and 50 to 75% in experiment [2].

For `CCCCNCC(O)c1cc(Cl)c(O)c(Cl)c1` (centres unmarked) [Compound 23, 2-(butylamino)-1-(3,5-dichloro-4-hydroxyphenyl)-1-ethanol], the Emax at 10 µM in experiment [1] and in experiment [2] was under 25% throughout.

`Oc1ccc(C(O)CNCCC2CC2)cc1` (centres unmarked) [Compound 24, p-[2-(2-cyclopropylethylamino)-1-hydroxyethyl]phenol]: the figures for the Emax at 10 µM in experiment [1] and in experiment [2] were 50 to 75% and under 25%, respectively.

Turning to `CCCC(C)NCC(O)c1cc(Cl)c(O)c(Cl)c1` (centres unmarked) [Compound 25, 1-(3,5-dichloro-4-hydroxyphenyl)-2-(1-methylbutylamino)-1-ethanol], the Emax at 10 µM in experiment [1] and in experiment [2] was under 25% in each case.

For the compound `CCCCNCC(O)c1cc(O)cc(O)c1` (centres unmarked) [Compound 26, 5-[2-(butylamino)-1-hydroxyethyl]resorcinol], the Emax at 10 µM in experiment [1] is 50 to 75%; in experiment [2] it was under 25%.

As to `CCC[C@@H](C)NC[C@H](O)c1ccc(O)cc1` [Compound 27, (R)-2-[(R)-1-methylbutylamino]-1-(p-hydroxyphenyl)-1-ethanol], the Emax at 10 µM was over 75% in experiment [1] and 25 to 50% in experiment [2].

Take `CCC[C@@H](C)NC[C@H](O)c1cccc(O)c1` [Compound 28, (R)-2-[(R)-1-methylbutylamino]-1-(m-hydroxyphenyl)-1-ethanol]: the Emax at 10 µM in experiment [1] was over 75%; in experiment [2], 50 to 75%.

With `CCCCNCC(O)c1cc(Cl)c(N)c(Cl)c1` (centres unmarked) [Compound 29, 1-(4-amino-3,5-dichlorophenyl)-2-(butylamino)-1-ethanol], the Emax at 10 µM was over 75% in experiment [1] and 25 to 50% in experiment [2].

In the case of `Oc1ccc(C(O)CNCCCC2CC2)cc1` (centres unmarked) [Compound 30, 2-(3-cyclopropylpropylamino)-1-(p-hydroxyphenyl)-1-ethanol], the figures for the Emax at 10 µM in experiment [1] and in experiment [2] were over 75% and under 25%, respectively.

Take `Oc1ccc(C(O)CNCCCC(F)(F)F)cc1` (centres unmarked) [Compound 31, 1-(p-hydroxyphenyl)-2-(4,4,4-trifluorobutylamino)-1-ethanol]: the Emax at 10 µM in experiment [1] fell in the range of 50 to 75%.

In the case of `CCCCNCC(O)c1cc(Cl)c(N)c(C(F)(F)F)c1` (centres unmarked) [Compound 32, 1-[4-amino-3-chloro-5-(trifluoromethyl)phenyl]-2-(butylamino)-1-ethanol], the Emax at 10 µM in experiment [1] was over 75%; in experiment [2] it was 25 to 50%.
